Source: US10106854B2, “Biomarkers for prostate cancer” (Aarhus Universitet, priority 2012, dated 2018)

System: BPH1, PNT1A, LNCaP, 22rv1, PC3 and DU145 cell lines
Assay: 5-aza-dC treatment, RNA extraction and RT-qPCR
Format: cell-based, human
Details: prostatic cell lines, 1 μM 5-aza-dC for two days, five day recovery; when methylation was reduced, not when DNA methylation levels were unaffected
Description: BPH1, PNT1A, LNCaP, 22rv1, PC3 and DU145 cell lines at >50% confluence were treated with 1 μM freshly prepared 5-aza-2′-deoxycytidine (5-aza-dC) in 50% acetic acid (Sigma, cat. no.: A3656) for two days. After a five day recovery period, DNA was purified as described above. RNA was purified using the RNeasy Mini kit from Qiagen and stored at −80° C. One μg RNA was reverse transcribed using 100 pmol oligo-dT(24) primer and the SuperScript II Reverse Transcriptase kit (Invitrogen). Taqman® gene expression assays: AOX1 (Hs01565232_m1), C1orf114 (Hs00982321_g1), GAS6 (Hs01090305_m1), and HAPLN3 (Hs00820260_m1) were used with Taqman Mastermix no UNG. UBC was used for normalization (primers: 5′-GATTTGGGTCGCGGTTCTT-3′ and 5′-[…]-3′ used with Power Sybr Green Mastermix). Assays were run twice in triplicate in 10 μL reactions. Reactions were mixed and run as described for qMSP assays.

## Nc1ncn([C@H]2C[C@H](O)[C@@H](CO)O2)c(=O)n1 [5-aza-dC, 5-aza-2′-deoxycytidine]
  RNA expression from DNA hypermethylated genes: generally stimulated RNA expression
